Assay results as given in patent publication US5023322A, “Analogs of growth hormone releasing factor (GRF) and a method for the preparation thereof” (MTA Kutatas-es Szervezetelemzo Intezete, priority 1988, dated 1991).
No end group written: not given here.

What was measured:
milk production = conditions: cattle; J. Dairy Science 70, 2511 (1987) and 71, 92 (1988); cited from earlier work
[1] = literature; cited from earlier work
growth hormone release [2] = assay: plasma GH level in anaesthetized rats after intravenous administration; format: in vivo, Wistar Amsterdam rats; conditions: for Plasma GH level: i.v.
Method: (§1) The biological effects of the compounds according to the invention were tested under in vitro and in vivo conditions. In both instances the growth hormone release was measured as a function of the concentration of the compound administered. The amount of growth hormone released was detected by radioimmune assay with a reliability limit of 95%. The results obtained were compared to those obtained when administering native hpGRF or hGRF(1-29)--NH2, respectively.
(§2) Mature male Wistar Amsterdam rats, weighing 250-300 g, were anaesthetized intraperitoneally with 60 mg/kg of pentobarbital. The peptides to be tested were dissolved in 0.9% by weight aqueous saline solution, and were administered to the animals 20 minutes after anaesthesy as an intravenous (i.v.), intramuscular (i.m.) or subcutaneous (s.c.) injection. Blood samples were taken from the jugular vein of the animals prior to the administration of the active agent (-1 minute) and 5, 15 and 30 minutes after challenge. The amount of growth hormone released was measured by radioimmune assay.
Therefore, when the compounds were administered intravenously, the percentage increase in activity was calculated by relating the amount of growth hormone released upon administering a compound of the invention to the amount of growth hormone released upon administering hGRF(1-29)--NH2.

growth hormone release [3] = assay: plasma GH level in anaesthetized rats after subcutaneous administration; format: in vivo, Wistar Amsterdam rats; conditions: administered subcutaneously, in the doses tested
Method: as §1, §2
(§3) Therefore, in these tests the activity of the compounds according to the invention was characterized by the percentage increase in the plasma growth hormone level related to that originally present in the plasma (basal value).

growth hormone release [4] = assay: plasma GH level in anaesthetized rats after intramuscular administration; format: in vivo, Wistar Amsterdam rats; conditions: administered intramuscularly, in the doses tested
Method: as §1, §2, §3

Substance	milk production of cattles, quality and quantity (in words) (milk production)	biological activity compared to the native hGRF(1-44)--NH2 (in words) [1]	release of growth hormone (in words) (growth hormone release [2]; administered intravenously)	Plasma GH level (growth hormone release [2]; 0.8 μg/kg, +5 min) [ng/mL]	Plasma GH level (growth hormone release [2]; 0.8 μg/kg, +15 min) [ng/mL]	Plasma GH level (growth hormone release [2]; 0.8 μg/kg, +30 min) [ng/mL]	Plasma GH level (growth hormone release [2]; 0.8 μg/kg, -1 min (before administration)) [ng/mL]	Plasma GH level (growth hormone release [2]; 2 μg/kg, +5 min) [ng/mL]	Plasma GH level (growth hormone release [2]; 2 μg/kg, +15 min) [ng/mL]	Plasma GH level (growth hormone release [2]; 2 μg/kg, +30 min) [ng/mL]	Plasma GH level (growth hormone release [2]; 2 μg/kg, -1 min (before administration)) [ng/mL]	activity on growth hormone release (in words) (growth hormone release [3])	activity on growth hormone release (in words) (growth hormone release [4])
human GRF(1-44)--NH2 (YADAIFTNSYRKVLGQLSARKLLQDIMSRQQGESNQERGARARL-NH2; UniProt P01286 32-75, looked up) [native human GRF, a peptide amide of 44 residues]	influenced favourably												
hGRF(1-29)--NH2 (YADAIFTNSYRKVLGQLSARKLLQDIMSR-NH2; UniProt P01286 32-60, looked up, fragment) [Standard, fragment of the native human peptide amide extending from the N-terminal through residue 29; applied as standard]	influenced favourably	favourable activity	stimulated the release of growth hormone	311.00	93.60	48.73	80.46	1061.11	393.13	109.22	125.22	practically inactive	practically inactive
